Assay results published in patent EP0334244A2, “Bradykinin Antagonist Peptides” (THE PROCTER & GAMBLE COMPANY, priority 1988, dated 1989).
Values joined by “and” are separate entries in the source; they are usually repeats but may differ in a detail not shown here. Equal entries are not always repeated. Non-standard residues stand in square brackets, D forms with d. Residues, ends and D or L forms follow the SMILES beside them. Hyp = O=C(O)[C@@H]1C[C@@H](O)CN1

Tests used:
Male CF-1 mice = assay: Mouse abdominal constriction test (phenylquinone-induced writhing); type: in vivo; settings: for Change from Control (%): I.P.; for bradykinin agonist / antagonist activity in the assay: result in words, mouse abdominal constriction assay
Method: Compounds of the present invention are tested for analgesic activity using the mouse abdominal constriction assay. This assay is described in Hendershot, L.C., & J. Forsaith, "Antagonism of the Frequency of Phenylquinone-induced Writhing in the Mouse by Weak Analgesics and Nonanalgesics", J. Pharmacol., Vol. 125, (1959), pp. 237-240, and in Methods in Narcotics Research, S. Ehrenpreis and A. Neidle, (eds.), Marcel Dekker, Inc., New York (pub.), 1975, pp. 64-65, the disclosures of both these references being incorporated herein in their entirety by reference.
Male CF-1 mice (Charles River Breeding Laboratories, Inc.), weighing approximately 20 grams and food fasted overnight, are used in these assays. Test compounds are prepared for intraperitoneal (i.p.) injection, with compounds of the present invention being prepared in distilled deionized water so that the appropriate dose is given in 0.2 mls to a 20 gram mouse.
An i.p. injection of 0.02% phenylquinone (2.5 mg/kg) is given at a concentration of 0.25 ml/20 grams body weight. Five minutes later the mice receive an i.p. injection of test compound. Five minutes after the i.p. injection of test compound, the number of full body writhes are counted for the succeeding ten minutes. Percent analgesia in this assay is calculated as follows: [formula]
The mouse abdominal constriction assay was used to measure the antagonist activity of peptides of the present invention and related peptides as shown in Table 2: Table 2

Bradykinin receptor = target: T1, Bradykinin receptor (Mus musculus, UniProt P32299); assay: Cell culture method: inhibition of bradykinin-induced increase in cytosolic free calcium in fura-2 loaded NG108-15 cells; type: cell-based; settings: for agonist / antagonist activity in this assay: result in words
T1 construct: suspensions of cultured NG108-15 cells loaded with the Ca²⁺-sensitive fluorescent indicator fura-2; endogenous in cells; host or cells: NG108-15 cells (University of California at San Francisco, Cell Culture Facility)
T1 sequence (P32299 1-392): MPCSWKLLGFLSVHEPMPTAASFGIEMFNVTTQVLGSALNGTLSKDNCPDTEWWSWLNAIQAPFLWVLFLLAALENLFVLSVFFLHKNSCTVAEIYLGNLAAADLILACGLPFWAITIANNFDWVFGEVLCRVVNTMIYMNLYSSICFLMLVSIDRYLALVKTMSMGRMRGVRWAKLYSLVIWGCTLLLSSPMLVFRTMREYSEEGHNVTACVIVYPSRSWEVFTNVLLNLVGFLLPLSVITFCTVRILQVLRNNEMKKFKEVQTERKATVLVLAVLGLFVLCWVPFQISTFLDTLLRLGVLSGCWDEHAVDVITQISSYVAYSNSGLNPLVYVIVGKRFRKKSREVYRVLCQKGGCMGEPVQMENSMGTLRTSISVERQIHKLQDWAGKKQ
Method: In many different tissues and isolated cell populations, bradykinin induces a receptor mediated rise in the concentration of cytosolic free calcium ([Ca²⁺]i). In cultured NG108-15 neuronal cells (University of California at San Francisco, Cell Culture Facility, San Francisco, California), bradykinin increases [Ca²⁺]i in a dose dependent manner from a basal concentration of about 260 nM to approximately 1000 nM at a maximally effective concentration of bradykinin (1 X 10⁻⁶M). The half maximally effective concentration (EC₅₀) of bradykinin is 3 X 10⁻⁹M. Bradykinin receptor antagonist potency is evaluated by determining the concentration of antagonist required to inhibit by 50% (IC₅₀) the increase in [Ca²⁺]i induced by 1 X 10⁻⁹M bradykinin (Bachem, Torrance, CA). NG108-15 cells are cultured in […] Corning flasks (Fisher Scientific, Cincinnati, OH) in Dulbecco's modified minimal essential medium (high glucose; Gibco, Grand Island, NY) containing 5% fetal bovine serum (Hyclone, Logan, UT) and HAT (hypoxanthine-aminopterin-thymidine, Sigma, St. Louis, MO). The concentration of cytosolic free Ca²⁺ ([Ca²⁺]i) is measured in suspensions of cultured NG108-15 cells loaded with the Ca²⁺-sensitive fluorescent indicator fura-2 essentially as described by Osugi et al. (Journal Pharmacol. Exp. Ther., Vol. 240, (1987), pp. 617-622). Flasks of confluent cells are incubated for 60 minutes at 37°C in 20 mls of HEPES-buffered saline [140 mM NaCl, 5.4 mM KCl, 0.8 mM MgSO₄, 1.0 mM CaCl₂, 20 mM HEPES (N-2-. hydroxyethylpiperazine-N′-2-ethanesulfonic acid; Behring Diagnostics, LaJolla, CA), 10 mM glucose, 0.25% bovine serum albumin (Cat. #A-4503; Sigma Chemical Co., St. Louis, MO)] containing fura-2 acetoxymethyl ester (Molecular Probes, Inc., Eugene, OR) at a final concentration of 2 µM. The flasks are then washed twice with 30 mls of HEPES-buffered saline and the cells detached from the flasks in 15 mls of HEPES-buffered saline. The cell suspension is centrifuged at 25°C for 5 minutes at 350 x g and the cell pellet resuspended to a final volume of approximately 10 ml of HEPES-buffered saline/flask. The cell suspension is maintained at room temperature prior to use. The fluorescence of the fura-2 loaded NG108-15 cells is measured at an excitation wavelength of 340 nm (10 nM slit) and an emission wavelength of 500 nm (10 nM slit) in a Perkin-Elmer LS-5 fluorescence spectrophotometer fitted with a magnetic stirrer and a thermostatted cell holder. An aliquot of the cell suspension (1.37 ml) is placed in a cylindrical glass cuvette (internal diameter of 8 mm) containing a teflon coated stir bar and warmed to 37°C in a water bath. After 5 minutes, the cuvette is placed in the cell holder of the fluorometer and stirring is initiated just prior to the addition of a test sample. Routinely, a test sample (0.014 ml of a 100-fold concentration solution) is added to the cuvette 30 seconds prior to the addition of 1 X 10⁻⁹ M bradykinin. Fluorescence is recorded continuously during the addition of the test sample and bradykinin. Following completion of the fluorescence measurements, the cells are lysed with Triton X-100 at a final concentration of 10% (v/v) and the fluorescence of the Ca²⁺ saturated fura-2 (Fmax; fluorescence in the presence of 1 mM Ca²⁺) and the Mn²⁺-quenched fura-2 (autofluorescence (AF); fluorescence in the presence of 2 mM Mn²⁺) determined. […]

guinea pig ileum = assay: Guinea pig ileum assay (muscle contraction); settings: negative log of the dose causing half maximal contraction
Method: The bradykinin antagonists are assayed on guinea pig ileum for inhibition of the muscle-contracting activity of bradykinin, according to the commonly accepted assay method for bradykinin and related kinins as described in Stewart, J.M., "Chemistry and Biological Activity of Peptides Related to Bradykinin", Chapter V of Bradykinin, Kallidin and Kallikrein, (Handbook of Expt. Pharmacol.), E. G. Erdoes (ed.), Vol 25, Springer Verlag (pub.), 1970, pp. 242-243. The inhibition potencies are determined on isolated guinea pig ileum, according to the commonly accepted manner described for antagonists of biologically active compounds in Schild, H.O., "pA, a New Scale for the Measurement of Drug Antagonism", Br. J. Pharmacol., Vol. 2, No. 3 (1947), pp. 189-206). In the assay, a dose-response curve is determined for the reference substance bradykinin. The dose of bradykinin which produces a half maximal contraction of tissue is the ED₅₀ dose. An amount of bradykinin equivalent to twice the ED₅₀ dose is administered to the tissue 30 seconds after the start of incubation of the tissue with a dose of antagonist. Doses of antagonist are increased in this protocol until pre-incubation with a dose of antagonist reduces the contraction in response to the double ED₅₀ dose of bradykinin to response of a single ED₅₀ dose of bradykinin. […]

| Molecule | bradykinin agonist / antagonist activity in the assay (Male CF-1 mice) | agonist / antagonist activity in this assay (Bradykinin receptor) | Change from Control (%) (Male CF-1 mice; Dose 50 mg/kg) | other results |
| --- | --- | --- | --- | --- |
| N=C(N)NCCC[C@H](NC(=O)[C@H](Cc1ccccc1)NC(=O)[C@@H](Cc1ccccc1)NC(=O)[C@H](CO)NC(=O)[C@H](Cc1ccccc1)NC(=O)CNC(=O)[C@@H]1C[C@@H](O)CN1C(=O)[C@@H]1CCCN1C(=O)[C@@H](N)CCCNC(=N)N)C(=O)O [Compound 1, H-Arg-Pro-Hyp-Gly-Phe-Ser-DPhe-Phe-Arg-OH, reference compound] (H-RP[Hyp]GFS[dF]FR-OH) | bradykinin agonist | high agonist (bradykinin-like) activity |  | Change from Control (%) (Male CF-1 mice; Dose 25 mg/kg, negative value = agonist): -31%; IC₅₀ (Bradykinin receptor; inhibition by 50% of the increase in [Ca²⁺]i induced by 1 X 10⁻⁹M bradykinin): Partial Agonist* |
| N=C(N)NCCC[C@H](NC(=O)[C@H](Cc1ccccc1)NC(=O)[C@@H](Cc1ccccc1)NC(=O)[C@H](CO)NC(=O)[C@H](Cc1ccccc1)NC(=O)CNC(=O)[C@H](CC(N)=O)NC(=O)[C@@H]1CCCN1C(=O)[C@@H](N)CCCNC(=N)N)C(=O)O [Compound 2, H-Arg-Pro-Asn-Gly-Phe-Ser-DPhe-Phe-Arg-OH] (H-RPNGFS[dF]FR-OH) | bradykinin antagonist activity | Compounds 2 and 6 are peptides of the present invention and both exhibit only antagonist (no agonist) activity in this assay. | 57% |  |
| N=C(N)NCCC[C@@H](N)C(=O)N[C@@H](CCCNC(=N)N)C(=O)N1CCC[C@H]1C(=O)N[C@@H](CC(N)=O)C(=O)NCC(=O)N[C@@H](Cc1ccccc1)C(=O)N[C@@H](CO)C(=O)N[C@H](Cc1ccccc1)C(=O)N[C@@H](Cc1ccccc1)C(=O)N[C@@H](CCCNC(=N)N)C(=O)O [Compound 6, H-DArg-Arg-Pro-Asn-Gly-Phe-Ser-DPhe-Phe-Arg-OH] (H-[dR]RPNGFS[dF]FR-OH) |  | Compounds 2 and 6 are peptides of the present invention and both exhibit only antagonist (no agonist) activity in this assay. |  |  |
| H-DArg-Arg-Pro-Hyp-Gly-Phe-Ser-DPhe-Phe-Arg-OH [Compound 5] |  | small amount of agonist activity |  | agonist activity (Bradykinin receptor; printed beside the IC₅₀): 10% |
| H-Arg-Pro-Aap-Gly-Phe-Ser-DPhe-Phe-Arg-OH [Compound 4] | bradykinin antagonist activity |  | 46% |  |
| N=C(N)NCCC[C@H](NC(=O)[C@H](Cc1ccccc1)NC(=O)[C@@H](Cc1ccccc1)NC(=O)[C@H](CO)NC(=O)[C@H](Cc1ccccc1)NC(=O)[C@H]1CCCN1C(=O)[C@H](CC(N)=O)NC(=O)[C@@H]1CCCN1C(=O)[C@@H](N)CCCNC(=N)N)C(=O)O [Compound 3, H-Arg-Pro-Asn-DPro-Phe-Ser-DPhe-Phe-Arg-OH] (H-RPN[dP]FS[dF]FR-OH) | bradykinin antagonist activity |  | 72% and 61% |  |
| bradykinin (RPPGFSPFR; Bradykinin; UniProt P01042 381-389, looked up) [naturally occurring agonist nonapeptide] |  |  |  | pD2 value (guinea pig ileum): 7.4; [Ca²⁺]i at maximally effective concentration (Bradykinin receptor; 1 X 10⁻⁶M bradykinin, basal concentration about 260 nM): approximately 1000 nM |
